Measured values published in ChEMBL document CHEMBL1141464, “Rational design of the first small-molecule antagonists of NHERF1/EBP50 PDZ domains” (Bioorg Med Chem Lett, 2008).
The source made the active and inactive calls. The rule behind the calls is not given here.

Columns and labels:
[1] = molecular target: Beta-2 adrenergic receptor (Homo sapiens) (UniProt P07550); assay: Binding affinity to GST tagged human beta 2 adrenergic receptor PDZ1 domain upto 300 uM
[2] = molecular target: Cystic fibrosis transmembrane conductance regulator (Homo sapiens) (UniProt P13569); assay: Binding affinity to GST tagged human CFTR PDZ2 domain upto 300 uM
Cystic fibrosis transmembrane conductance regulator (Homo sapiens), sequence (P13569 whole entry, looked up, the tested form may be a part): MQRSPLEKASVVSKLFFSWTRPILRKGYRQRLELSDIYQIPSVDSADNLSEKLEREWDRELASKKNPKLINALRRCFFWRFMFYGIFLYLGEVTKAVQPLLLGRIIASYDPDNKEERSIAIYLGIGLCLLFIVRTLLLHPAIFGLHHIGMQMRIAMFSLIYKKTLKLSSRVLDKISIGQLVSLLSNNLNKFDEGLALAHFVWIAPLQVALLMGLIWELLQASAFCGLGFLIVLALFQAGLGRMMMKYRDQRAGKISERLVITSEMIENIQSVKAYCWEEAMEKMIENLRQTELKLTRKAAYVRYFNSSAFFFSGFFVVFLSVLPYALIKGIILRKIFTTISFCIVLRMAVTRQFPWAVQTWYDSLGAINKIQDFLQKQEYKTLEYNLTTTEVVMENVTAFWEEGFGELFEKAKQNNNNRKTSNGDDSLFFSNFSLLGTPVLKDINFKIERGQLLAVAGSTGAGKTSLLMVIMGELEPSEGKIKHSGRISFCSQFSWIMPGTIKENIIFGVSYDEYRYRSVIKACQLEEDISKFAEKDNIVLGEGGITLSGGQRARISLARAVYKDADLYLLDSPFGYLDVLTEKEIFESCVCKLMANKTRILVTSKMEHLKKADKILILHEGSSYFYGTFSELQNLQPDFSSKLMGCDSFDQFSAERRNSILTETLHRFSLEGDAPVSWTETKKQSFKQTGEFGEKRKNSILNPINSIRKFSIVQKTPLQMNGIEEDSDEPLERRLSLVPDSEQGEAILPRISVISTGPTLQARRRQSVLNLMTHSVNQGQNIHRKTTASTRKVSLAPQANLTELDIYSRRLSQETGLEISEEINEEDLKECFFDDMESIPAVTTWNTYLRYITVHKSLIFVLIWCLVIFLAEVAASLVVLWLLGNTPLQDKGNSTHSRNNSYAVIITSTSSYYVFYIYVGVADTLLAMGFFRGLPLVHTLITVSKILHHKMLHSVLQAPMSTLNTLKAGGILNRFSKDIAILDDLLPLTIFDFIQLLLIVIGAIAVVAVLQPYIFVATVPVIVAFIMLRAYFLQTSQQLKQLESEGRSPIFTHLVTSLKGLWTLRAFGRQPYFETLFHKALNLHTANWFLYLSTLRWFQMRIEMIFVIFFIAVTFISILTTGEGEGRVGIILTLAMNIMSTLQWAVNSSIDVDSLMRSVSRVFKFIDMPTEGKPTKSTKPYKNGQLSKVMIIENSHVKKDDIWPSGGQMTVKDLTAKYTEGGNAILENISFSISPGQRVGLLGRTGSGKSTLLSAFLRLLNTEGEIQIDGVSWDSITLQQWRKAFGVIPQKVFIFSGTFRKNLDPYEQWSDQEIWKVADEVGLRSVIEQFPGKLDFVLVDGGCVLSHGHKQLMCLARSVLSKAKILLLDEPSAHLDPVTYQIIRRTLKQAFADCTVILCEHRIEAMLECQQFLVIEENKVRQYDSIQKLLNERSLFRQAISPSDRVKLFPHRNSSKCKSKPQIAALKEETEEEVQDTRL

Beta-2 adrenergic receptor (Homo sapiens), sequence (P07550 whole entry, looked up, the tested form may be a part): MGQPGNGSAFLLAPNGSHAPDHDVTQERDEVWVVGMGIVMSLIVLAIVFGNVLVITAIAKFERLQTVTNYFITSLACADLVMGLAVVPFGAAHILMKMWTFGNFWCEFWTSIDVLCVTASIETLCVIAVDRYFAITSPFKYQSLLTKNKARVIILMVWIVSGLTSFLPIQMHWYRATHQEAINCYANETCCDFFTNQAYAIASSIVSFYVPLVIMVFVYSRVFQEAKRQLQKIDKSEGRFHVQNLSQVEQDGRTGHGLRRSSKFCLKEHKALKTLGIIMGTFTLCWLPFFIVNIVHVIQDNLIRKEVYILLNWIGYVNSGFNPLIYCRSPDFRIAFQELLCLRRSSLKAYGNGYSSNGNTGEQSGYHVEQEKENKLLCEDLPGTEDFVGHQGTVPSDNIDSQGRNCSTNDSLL

- Activity [1]: inactive
- Activity [2]: inactive
SMILES: CCCNC(=O)c1[nH]c2cc(C)c(C(=O)O)cc2c1CCc1ccccc1
